Measurements published in PMC6268433, “New Sorafenib Derivatives: Synthesis, Antiproliferative Activity Against Tumour Cell Lines and Antimetabolic Evaluation” (Molecules, 2012).

What was measured:
[1] = system: RNA synthesis in CEM cells; test: Antimetabolic activity: [5-3H]Urd incorporation (RNA synthesis) in CEM cell cultures; assay type: cell-based; details: Homo sapiens, CCRF-CEM, ~20 h, TCA-insoluble material
Text: (§1) A variety of compounds (2a, 3a, 4a with a cycloalkyl substituent directly attached to nitrogen atom, 2c, 3c, 4c with a cycloalkyl bound to nitrogen through a short spacer and 2e, 3e, 4e with an aromatic substituent) have been investigated on their inhibitory activity against DNA, RNA and protein synthesis in CEM cell cultures. The compounds were equally inhibitory to dThd (DNA synthesis), Urd (RNA synthesis) and Leu (protein synthesis) incorporation into TCA-insoluble cell material. The 2 series of compounds were least inhibitory whereas the 4 series were most inhibitory (IC50 in the lower micromolar range). Their antimetabolic IC50 values closely corresponded to their antiproliferative IC50 values. They also behaved as sorafenib in terms of antimetabolic potential (Table 3).
(§2) The procedures have been modified from previously described methods. Human CEM cells were seeded in 96-well microtiter plates at 10 × 10^4 cells/200 µL-well in the presence of serial dilutions of the tested compounds. Then, 0.25 µCi of [CH3-^3H]dThd (radiospecificity: 52 Ci/mmol) or 1 µCi of [5-^3H]Urd (radiospecificity: 26 Ci/mmol) or [4,5-^3H]Leu (radiospecificity: 160 Ci/mmol) were added and the drug-exposed tumour cell cultures further incubated at 37 °C for ~20 h. Then the content of each well was transfered to glass fiber discs (Wattman, GE Healthcare, Maidstone, UK), mounted on a manifold (Millipore, Billerica, MA, USA) and subsequently washed with PBS (to remove the radiolabel material that has not been incorporated in the cellular macromolecules), 10% and 5% trichoroacetic acid (TCA) (to precipitate DNA, RNA and proteins) and ethanol. Then, the radioactivity (TCA precipitate) associated with each disc was determined in a liquid scintillation counter (Packard, Palo Alto, CA, USA).

[2] = system: protein synthesis in CEM cells; test: Antimetabolic activity: [4,5-3H]Leu incorporation (protein synthesis) in CEM cell cultures; assay type: cell-based; details: Homo sapiens, CCRF-CEM, ~20 h, TCA-insoluble material
Text: as §1, §2

HeLa (cervix carcinoma) = test: Cytostatic activity, Coulter counter; assay type: cell-based, human; details: Homo sapiens, HeLa; 72 h, cell number by Coulter counter; read-out: Tumour cell growth/IC50 HeLa
Description: (§3) The experiments were carried out on six human tumour and one murine cell lines, which are derived from five solid tumour types and two (one murine and one human) suspension tumour cell lines. The following cell lines were used: HCT 116 (colon carcinoma), SW 620 (colon carcinoma), MCF-7 (breast carcinoma), H 460 (lung carcinoma), L1210 (murine leukemia), CEM (human lymphoma) and HeLa (cervix carcinoma). […] Compounds 3d and 3e with a benzene ring in the amide moiety, exerted a somewhat stronger (but still rather poor) cytostatic effect (IC50 ≈ 20-90 µM). […] The compounds were also equally cytostatic against primary human embryonic lung (HEL) fibroblast cells (Table 2). The obtained data clearly point to the obligatory presence of the [4-chloro-3-(trifluoromethyl)phenyl]carbamoyl group being crucial for high potency. Also, the 4a–e series of compounds are far more lipophilic than the 2 and 3 series of compounds, which may be related to their increased cytostatic potential.
(§4) The cytostatic activity of the tested compounds against murine leukemia L1210, human cervix carcinoma HeLa, human embrionic lung (HEL) and T-lymphocyte CEM cells was determined with cells grown in suspension (L1210, CEM) or monolayers (HeLa, HEL) in 200 µL-wells of 96-well microtiter plates (initial cell number: 5–7.5 × 10^4 cells/well). After 48 (L1210) or 72 (CEM, HeLa, HEL) h, the tumour cell number was determined by the use of a Coulter counter.

[3] = system: DNA synthesis in CEM cells; test: Antimetabolic activity: [CH3-3H]dThd incorporation (DNA synthesis) in CEM cell cultures; assay type: cell-based; details: Homo sapiens, CCRF-CEM, ~20 h, TCA-insoluble material
Text: as §1, §2

CEM (human lymphoma) = test: Cytostatic activity, Coulter counter; assay type: cell-based; details: Homo sapiens; 72 h, cell number by Coulter counter; read-out: Tumour cell growth/IC50 CEM
Description: as §3, §4

L1210 (murine leukemia) = test: Cytostatic activity, Coulter counter; assay type: cell-based; details: Mus musculus, L1210; 48 h, cell number by Coulter counter; read-out: Tumour cell growth/IC50 L1210
Description: as §3, §4

[4] = system: primary human embryonic lung (HEL) fibroblast cells; test: Cytostatic activity, Coulter counter; assay type: cell-based; details: Homo sapiens, Fibroblast; 72 h, cell number by Coulter counter; primary fibroblasts
Description: as §3, §4

SW 620 (colon carcinoma) = test: Cytostatic activity, MTT assay; assay type: cell-based, human; details: Homo sapiens, SW-620, 72 h, read-out: Tumour cell growth/IC50 SW 620
Description: as §3
(§5) HCT 116, SW 620, MCF-7, and H 460 cells were cultured as monolayers and maintained in Dulbecco’s modified Eagle medium (DMEM), supplemented with 10% fetal bovine serum (FBS), 2 mmol·L^–1 L-glutamine, 100 U·mL^–1 penicillin and 100 μg·mL^–1 streptomycin in a humidified atmosphere with 5% CO2 at 37 °C. The growth inhibition activity was assessed as described previously, according to the slightly modified procedure of the National Cancer Institute, Developmental Therapeutics Program. Briefly, the cells were seeded onto standard 96-well microtiter plates on day 0. The cell concentrations were adjusted according to the cell population doubling time (PDT): 3000 cells/well for HCT116 and SW 620 cell lines (PDT = 20–24 h) and 4,000 cells/well for MCF-7 cell lines (PDT = 33 h). Tested agents were then added in five consecutive 10-fold dilutions (10^–8 to 10^–4 mol·L^–1) and incubated for further 72 h. Working dilutions were freshly prepared on the day of testing. The solvent (DMSO) was also tested for eventual inhibitory activity by adjusting its concentration to be the same as in working concentrations (maximal concentration of DMSO was 0.25%). After 72 h of incubation, the cell growth rate was evaluated by performing the MTT assay (Promega) which detects dehydrogenase activity in viable cells. The absorbency (OD, optical density) was measured on a microplate reader at 570 nm. Each test point was performed in quadruplicate in at least three individual experiments. The results are expressed as IC50, which is the concentration necessary for 50% of inhibition. […] Each result is a mean value from three separate experiments.

H 460 (lung carcinoma) = test: Cytostatic activity, MTT assay; assay type: cell-based, human; details: Homo sapiens, NCI-H460, 72 h, read-out: Tumour cell growth/IC50 H 460
Description: as §3, §5

MCF-7 (breast carcinoma) = test: Cytostatic activity, MTT assay; assay type: cell-based, human; details: Homo sapiens, MCF7, 72 h, read-out: Tumour cell growth/IC50 MCF-7
Description: as §3, §5

[5] = system: HCT 116 (colon carcinoma); test: Cytostatic activity, MTT assay; assay type: cell-based, human; details: Homo sapiens, HCT-116, 72 h, read-out: Tumour cell growth/IC50 HCT 116
Description: as §3, §5

Row | SMILES | IC50 [1] [µM] | melting point [°C] | IC50 [2] [µM] | IC50 (HeLa (cervix carcinoma)) [µM] | IC50 [3] [µM] | IC50 (CEM (human lymphoma)) [µM] | IC50 (L1210 (murine leukemia)) [µM] | IC50 [4] [µM] | IC50 (SW 620 (colon carcinoma)) [µM] | IC50 (H 460 (lung carcinoma)) [µM] | IC50 (MCF-7 (breast carcinoma)) [µM] | IC50 [5] [µM]
1 | Nc1ccc(Oc2ccnc(C(=O)NCC3CCCCC3)c2)cc1 [Compound 3c, 4-(4-Aminophenoxy)-N-cyclohexylmethylpyridine-2-carboxamide] | 92.1 ± 43 | 135 to 137 | 70.6 ± 27.6 | > 100 | > 100 | > 100 | 163 ± 147 | > 100 | ≥ 100 | > 100 | ≥ 100 | ≥ 100
2 | O=C(NC1CCCCC1)c1cc(Cl)ccn1 [Compound 2b, 4-Chloro-N-cyclohexylpyridine-2-carboxamide] |  | 116 to 119 |  | > 100 |  | > 100 | > 100 | > 100 | > 100 | 35 ± 12 | ≥ 100 | > 100
3 | O=C(NCC1CCCCC1)c1cc(Cl)ccn1 [Compound 2c, 4-Chloro-N-cyclohexylmethylpyridine-2-carboxamide] | > 100 | 107 to 108 | > 100 | > 100 | > 100 | > 100 | > 100 | > 100 | ≥ 100 | > 100 | ≥ 100 | ≥ 100
4 | O=C(Nc1ccc(Oc2ccnc(C(=O)NCCc3ccccc3)c2)cc1)Nc1ccc(Cl)c(C(F)(F)F)c1 [Compound 4e, 4-[4-[[4-Chloro-3-(trifluoromethyl)phenyl]carbamoylamino]phenoxy]-N-phenylethyl-pyridine-2-carboxamide] | 6.6 ± 1.8 |  | 11.8 ± 7.7 | 1.7 ± 0.2 | 12.7 ± 9 | 2.5 ± 0.9 | 2.2 ± 0.2 | 4.6 ± 0.36 | 2 ± 0.4 | 2 ± 0.2 | 2 ± 0.1 | 3 ± 0.7
5 | O=C(NCCc1ccccc1)c1cc(Cl)ccn1 [Compound 2e, 4-Chloro-N-phenylethylpyridine-2-carboxamide] | > 100 |  | > 100 | > 100 | > 100 | > 100 | > 100 | > 100 | > 100 | > 100 | 57 ± 46 | ≥ 100
6 | O=C(NCc1ccccc1)c1cc(Cl)ccn1 [Compound 2d, 4-Chloro-N-benzylpyridine-2-carboxamide] |  | 70 to 72 |  | > 100 |  | ≥ 100 | ≥ 100 | > 100 | 71 ± 28 | > 100 | ≥ 100 | ≥ 100
7 | O=C(Nc1ccc(Oc2ccnc(C(=O)NCc3ccccc3)c2)cc1)Nc1ccc(Cl)c(C(F)(F)F)c1 [Compound 4d, 4-[4-[[4-Chloro-3-(trifluoromethyl)phenyl]carbamoylamino]phenoxy]-N-benzyl-pyridine-2-carbox-amide] |  | 160 to 163 |  | 2.6 ± 0.6 |  | 4.3 ± 0.4 | 2 ± 0.4 | 3.1 ± 0.2 | 2 ± 0.08 | 2 ± 0.2 | 2 ± 0.2 | 2 ± 0.8
8 | O=C(Nc1ccc(Oc2ccnc(C(=O)NCC3CCCCC3)c2)cc1)Nc1ccc(Cl)c(C(F)(F)F)c1 [Compound 4c, 4-[4-[[4-Chloro-3-(trifluoromethyl)phenyl]carbamoylamino]phenoxy]-N-cyclohexylmethyl-pyridine-2-carboxamide] | 12.2 ± 8.4 | 156 to 160 | 27.4 ± 12.7 | 2.7 ± 1.8 | 20.1 ± 10.9 | 2 ± 0.5 | 1.8 ± 0.3 | 2.9 | 3 ± 0.4 | 2 ± 0.2 | 2 ± 0.1 | 3 ± 1
9 | O=C(Nc1ccc(Oc2ccnc(C(=O)NC3CCCCC3)c2)cc1)Nc1ccc(Cl)c(C(F)(F)F)c1 [Compound 4b, 4-[4-[[4-Chloro-3-(trifluoromethyl)phenyl]carbamoylamino]phenoxy]-N-cyclohexyl-pyridine-2-carboxamide] |  |  |  | 3 ± 0.2 |  | 3.6 ± 0.9 | 3.2 ± 1.7 | 3.2 ± 0.2 | 3 ± 0.2 | 2 | 2 ± 0.6 | 3 ± 0.8
10 | Nc1ccc(Oc2ccnc(C(=O)NC3CCCCC3)c2)cc1 [Compound 3b, 4-(4-Aminophenoxy)-N-cyclohexylpyridine-2-carboxamide] |  | 150 to 153 |  | > 100 |  | > 100 | 234 ± 4.5 | > 100 | ≥ 100 | 65 ± 33 | ≥ 100 | 37 ± 1
